Measurements as given in article PMC5050210, “BdorOBP83a-2 Mediates Responses of the Oriental Fruit Fly to Semiochemicals” (Frontiers in Physiology, 2016).

Key:
BdorOBP84a-1 [1] = biological target: T1, BdorOBP84a-1 (Bactrocera dorsalis, UniProt A0A0G2UGI7); test: biochemical; set-up: Fluorescence competitive displacement of 1-NPN from recombinant OBP, 25 °C, pH 7.4; competitor 5-50 uM; details: 1-NPN displacement; for IC50: 2 uM protein, 2 uM 1-NPN, extrapolated; for Kd: Kd from IC50, extrapolated
T1 construct: gene OBP84a-1; mature protein without signal peptide
T1 sequence (A0A0G2UGI7 25-167): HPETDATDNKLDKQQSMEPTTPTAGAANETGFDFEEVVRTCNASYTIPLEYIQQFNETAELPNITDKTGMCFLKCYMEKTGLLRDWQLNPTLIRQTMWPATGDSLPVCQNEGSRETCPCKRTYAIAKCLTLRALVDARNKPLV
Procedure: (§1) Fluorescence spectra were measured on an F-7000 FL Fluorescence Spectrophotometer (Hitachi) in a 10 mm light path quartz cuvette at 25°C. All were excited at 337 nm with emission and excitation slit of both 10 nm. The emission spectra were recorded between 350 and 500 nm. […] All measurements were performed in triplicates and mean values and standard errors are calculated. […] To determine the roles of specific OBPs in recognition of attractants in B. dorsalis, recombinant proteins of selected antenna-abundant OBPs and CSPs were obtained using a prokaryotic expression system (Figure 5). Purified OBPs and CSPs were used to determine binding affinity of each protein via fluorescence competitive binding assays. Thirteen pure attractant compounds were tested against each recombinant protein. […] Except for BdorCSP3 and BdorOBP84a-2, all remaining OBPs could bind to the tested compounds (Figure 6; Table S8). […] Alternatively they might be involved in functions other than odor detection. […] Overall, we observed lower binding affinity with our recombinant proteins and tested attractants. […] In other studies, much higher affinity has been reported. For example, competitive binding assays with a lepidopteran pheromone-binding protein can reach nearly 100% displacement (Hooper et al., [2009]; Gu et al., [2013]), and competitive binding assays with an aphid OBP (OBP7) can reach about 80% displacement with the alarm pheromone (E)-ss-farnesene (Sun et al., [2012]). The biological significance of the observed lower affinity with B. doralis OBPs here remains to be determined. It could be due to diverse binding mechanisms between different functional OBPs and the corresponding compounds. Alternatively, BdorOBP83a-2 may […] The sequences of BdorOBPs and BdorCSPs encoding mature proteins (without signal peptide) were amplified by PCR using specific primers carrying a restriction site EcoRI or XhoI (Table S2). PCR fragments were digested with both EcoRI and XhoI enzymes and the released DNA fragments were cloned into a PET-32a vector (Invitrogen), which were used to transform BL21 (DE3) E. coli competent cells (Invitrogen). A selected positive clone was grown overnight in 5 mL [compound left out] LB/ampicillin medium overnight at 37°C. Protein expression was induced with 1 mM IPTG for 3 h when the culture had reached an OD600-value of 0.7–0.9. Cells were then harvested by centrifugation and lysed by sonication. After sonication and centrifugation, most recombinant proteins were present in inclusion bodies. […] Renaturation of purified proteins were accomplished by gradient dilution at 4°C. His-tag was removed by digestion with recombinant enterokinase (Novagen) and the digested mixtures were passed through a HisTrap affinity column to remove any undigested protein. At each step during protein preparation and purification, protein extracts, and purified proteins were examined on 15% SDS-PAGE.

BdorOBP83a-2 [2] = biological target: T2, BdorOBP83a-2 (Bactrocera dorsalis, UniProt A0A0G2UEQ3); test: biochemical; set-up: Fluorescence competitive displacement of 1-NPN from recombinant OBP, 25 °C, pH 7.4; competitor 5-50 uM; details: 1-NPN displacement, 2 uM protein, 2 uM 1-NPN
T2 construct: gene OBP83a-2; mature protein without signal peptide
T2 sequence (A0A0G2UEQ3 24-148): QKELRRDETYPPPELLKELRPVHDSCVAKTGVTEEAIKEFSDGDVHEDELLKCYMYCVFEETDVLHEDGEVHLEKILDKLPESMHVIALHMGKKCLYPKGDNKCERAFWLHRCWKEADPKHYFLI
Procedure: (§2) Fluorescence spectra were measured on an F-7000 FL Fluorescence Spectrophotometer (Hitachi) in a 10 mm light path quartz cuvette at 25°C. […] The emission spectra were recorded between 350 and 500 nm. […] All measurements were performed in triplicates and mean values and standard errors are calculated. […] To determine the roles of specific OBPs in recognition of attractants in B. dorsalis, recombinant proteins of selected antenna-abundant OBPs and CSPs were obtained using a prokaryotic expression system (Figure 5). Purified OBPs and CSPs were used to determine binding affinity of each protein via fluorescence competitive binding assays. Thirteen pure attractant compounds were tested against each recombinant protein. […] PCR fragments were digested with both EcoRI and XhoI enzymes and the released DNA fragments were cloned into a PET-32a vector (Invitrogen), which were used to transform BL21 (DE3) E. coli competent cells (Invitrogen). […] LB/ampicillin medium overnight at 37°C. Protein expression was induced with 1 mM IPTG for 3 h when the culture had reached an OD600-value of 0.7–0.9. Cells were then harvested by centrifugation and lysed by sonication. […] Renaturation of purified proteins were accomplished by gradient dilution at 4°C. His-tag was removed by digestion with recombinant enterokinase (Novagen) and the digested mixtures were passed through a HisTrap affinity column to remove any undigested protein. At each step during protein preparation and purification, protein extracts, and purified proteins were examined on 15% SDS-PAGE.

BdorOBP83a-1 [3] = biological target: T3, BdorOBP83a-1 (Bactrocera dorsalis, UniProt A0A0G2UGI4); test: biochemical; set-up: Fluorescence competitive displacement of 1-NPN from recombinant OBP, 25 °C, pH 7.4; competitor 5-50 uM; details: 1-NPN displacement, 2 uM protein, 2 uM 1-NPN, extrapolated
T3 construct: gene OBP83a-1; mature protein without signal peptide
T3 sequence (A0A0G2UGI4 32-155): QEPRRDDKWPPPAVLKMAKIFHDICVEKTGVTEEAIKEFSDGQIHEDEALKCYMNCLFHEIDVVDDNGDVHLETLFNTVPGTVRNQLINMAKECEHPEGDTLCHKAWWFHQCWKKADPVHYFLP
Procedure: as §2

BdorOBP83a-2 [4] = biological target: T2, BdorOBP83a-2; test: 1-NPN fluorescence competition; assay type: binding; details: 50 mM Tris-HCl pH 7.4, 25°C; 2 μM protein, 2 μM 1-NPN; competitive displacement
BdorOBP56h [5] = biological target: T4, BdorOBP56h (Bactrocera dorsalis, UniProt A0A0G2UMU0); test: 1-NPN fluorescence competition; assay type: binding; details: 50 mM Tris-HCl pH 7.4, 25°C; 2 μM protein, 2 μM 1-NPN; competitive displacement
T4 construct: gene OBP56h; mature protein without signal peptide
T4 sequence (A0A0G2UMU0 20-136): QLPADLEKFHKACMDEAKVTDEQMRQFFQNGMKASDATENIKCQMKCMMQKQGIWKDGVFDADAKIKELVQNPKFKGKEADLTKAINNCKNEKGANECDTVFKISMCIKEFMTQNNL
Procedure: 1-NPN fluorescence competition on BdorOBP56h | all remaining OBPs could bind to the tested compounds

BdorOBP56h [6] = biological target: T4, BdorOBP56h; test: biochemical; set-up: Fluorescence competitive displacement of 1-NPN from recombinant OBP, 25 °C, pH 7.4; competitor 5-50 uM; details: 1-NPN displacement; for IC50: 2 uM protein, 2 uM 1-NPN, extrapolated, read-out: BdorOBP56 / IC50; for Kd: Kd from IC50, extrapolated, read-out: BdorOBP56 / Kd
Procedure: as §1

BdorOBP84a-1 [7] = biological target: T1, BdorOBP84a-1; test: 1-NPN fluorescence competition; assay type: binding; details: 50 mM Tris-HCl pH 7.4, 25°C; 2 μM protein, 2 μM 1-NPN; competitive displacement
Excerpt: 1-NPN fluorescence competition on BdorOBP84a-1 | all remaining OBPs could bind to the tested compounds

BdorOBP83a-1 [8] = biological target: T3, BdorOBP83a-1; test: 1-NPN fluorescence competition; assay type: binding; details: 50 mM Tris-HCl pH 7.4, 25°C; 2 μM protein, 2 μM 1-NPN; competitive displacement
BdorOBP83a-2 [9] = biological target: T2, BdorOBP83a-2; test: biochemical; set-up: Fluorescence competitive displacement of 1-NPN from recombinant OBP, 25 °C, pH 7.4; competitor 5-50 uM; details: 1-NPN displacement, Kd from IC50
Procedure: as §1

BdorOBP83a-1 [10] = biological target: T3, BdorOBP83a-1; test: biochemical; set-up: Fluorescence competitive displacement of 1-NPN from recombinant OBP, 25 °C, pH 7.4; competitor 5-50 uM; details: 1-NPN displacement, Kd from IC50, extrapolated
Procedure: as §1

BdorCSP3 = biological target: T5, BdorCSP3 (Bactrocera dorsalis, UniProt A0A0G2UMR0); test: direct fluorescence titration; assay type: binding; details: 50 mM Tris-HCl pH 7.4, 25°C; 2 μM protein, 1-16 μM 1-NPN; fluorescent probe
T5 construct: gene CSP3; mature protein without signal peptide
T5 sequence (A0A0G2UMR0 23-156): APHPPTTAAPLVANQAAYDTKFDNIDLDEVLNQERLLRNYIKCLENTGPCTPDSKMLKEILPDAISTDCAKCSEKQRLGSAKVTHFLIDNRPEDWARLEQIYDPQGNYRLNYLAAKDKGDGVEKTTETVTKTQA

BdorOBP83a-2 [11] = biological target: T2, BdorOBP83a-2; test: direct fluorescence titration; assay type: binding; details: 50 mM Tris-HCl pH 7.4, 25°C; 2 μM protein, 1-16 μM 1-NPN; fluorescent probe
BdorOBP84a-1 [12] = biological target: T1, BdorOBP84a-1; test: direct fluorescence titration; assay type: binding; details: 50 mM Tris-HCl pH 7.4, 25°C; 2 μM protein, 1-16 μM 1-NPN; fluorescent probe
BdorOBP56h [13] = biological target: T4, BdorOBP56h; test: direct fluorescence titration; assay type: binding; details: 50 mM Tris-HCl pH 7.4, 25°C; 2 μM protein, 1-16 μM 1-NPN; fluorescent probe
BdorOBP84a-2 = biological target: T6, BdorOBP84a-2 (Bactrocera dorsalis, UniProt A0A0G2UEQ7); test: direct fluorescence titration; assay type: binding; details: 50 mM Tris-HCl pH 7.4, 25°C; 2 μM protein, 1-16 μM 1-NPN; fluorescent probe
T6 construct: gene OBP84a-2; mature protein without signal peptide
T6 sequence (A0A0G2UEQ7 26-170): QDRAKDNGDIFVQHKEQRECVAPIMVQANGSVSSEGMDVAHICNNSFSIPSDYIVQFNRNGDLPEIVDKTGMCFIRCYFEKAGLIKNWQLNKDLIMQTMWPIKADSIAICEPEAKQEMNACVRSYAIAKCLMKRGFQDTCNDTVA

BdorOBP83a-1 [14] = biological target: T3, BdorOBP83a-1; test: direct fluorescence titration; assay type: binding; details: 50 mM Tris-HCl pH 7.4, 25°C; 2 μM protein, 1-16 μM 1-NPN; fluorescent probe

SMILES	IC50 (BdorOBP84a-1 [1]) [µM]	Kd (BdorOBP84a-1 [1]) [µM]	IC50 (BdorOBP83a-2 [2]) [µM]	IC50 (BdorOBP83a-1 [3]) [µM]	IC50 (BdorOBP56h [6]) [µM]	Kd (BdorOBP83a-2 [9]) [µM]	Kd (BdorOBP56h [6]) [µM]	Kd (BdorOBP83a-1 [10]) [µM]	also measured
CCCCCCCC1CCC(=O)O1 (stereo not drawn) [γ-undecalactone]	> 50	> 50							
CC1=CCC(=C(C)C)CC1 [Terpinolene]	> 50	> 50	> 50	> 50	> 50	> 50	> 50	> 50	
COc1cc(/C=C/CO)ccc1O [E-coniferyl alcohol]	> 50	> 50	> 50	> 50		> 50		> 50	
CCCCCC1CCC(=O)O1 (stereo not drawn) [γ-nonanoic lactone]	> 50	> 50	> 50		> 50		> 50		Kd (BdorOBP83a-2 [4]): 52.5 µM; Kd (BdorOBP83a-1 [8]): 85.9 mM
CCOC(=O)c1ccccc1 [Ethyl benzoate]	> 50	> 50	> 50		> 50	> 50	> 50		
c1ccc(Nc2cccc3ccccc23)cc1 [1-NPN]									K1-NPN (BdorCSP3): exhibited high affinity to the fluorescent probe 1-NPN; K1-NPN (BdorOBP83a-2 [11]): exhibited high affinity to the fluorescent probe 1-NPN; K1-NPN (BdorOBP84a-1 [12]): exhibited high affinity to the fluorescent probe 1-NPN; K1-NPN (BdorOBP56h [13]): exhibited high affinity to the fluorescent probe 1-NPN; K1-NPN (BdorOBP84a-2): exhibited high affinity to the fluorescent probe 1-NPN; K1-NPN (BdorOBP83a-1 [14]): exhibited high affinity to the fluorescent probe 1-NPN
CCCCC1CCC(=O)O1 (stereo not drawn) [γ-octalactone]	> 50	> 50	> 50	> 50	> 50		> 50		
C=CC(O)CCCCC (stereo not drawn) [1-octen-3-ol]	> 50	> 50	> 50	> 50	> 50	> 50	> 50	> 50	
CCOC(C)=O [Ethyl acetate]			> 50	> 50	> 50	> 50	> 50	> 50	

Second part, led by results:

IC50 (BdorOBP84a-1 [1]) [µM]	Kd (BdorOBP84a-1 [1]) [µM]	IC50 (BdorOBP83a-2 [2]) [µM]	IC50 (BdorOBP83a-1 [3]) [µM]	IC50 (BdorOBP56h [6]) [µM]	Kd (BdorOBP83a-2 [9]) [µM]	Kd (BdorOBP56h [6]) [µM]	Kd (BdorOBP83a-1 [10]) [µM]	SMILES	also measured
		50.8	> 50	> 50				C=CCc1ccc(OC)c(OC)c1 [methyl eugenol, 4-allyl-1,2-dimethoxybenzene]	Kd (BdorOBP83a-2 [4]): 34 µM; Kd (BdorOBP56h [5]): 578 µM; Kd (BdorOBP84a-1 [7]): 79.7 mM; Kd (BdorOBP83a-1 [8]): 2.53 mM
> 50	> 50	> 50	> 50	> 50	> 50	> 50	> 50	c1ccc2scnc2c1 [Benzothiazole]	
		> 50		> 50		> 50		CCCC1CCCC(=O)O1 (stereo not drawn) [δ-octalactone]	Kd (BdorOBP83a-2 [4]): 54.7 µM; Kd (BdorOBP83a-1 [8]): 12.7 mM
		> 50	> 50	> 50	> 50	> 50	> 50	C/C=C(\C)C(=O)OCC [Ethyl tiglate]	
